According to article PMC3293179 (MedChemComm, 2011):

Experiments:
FSHR = biological target: T1, FSHR (Homo sapiens, UniProt P23945); test: Selectivity test against FSHR; format: cell-based
T1 sequence (P23945 18-695): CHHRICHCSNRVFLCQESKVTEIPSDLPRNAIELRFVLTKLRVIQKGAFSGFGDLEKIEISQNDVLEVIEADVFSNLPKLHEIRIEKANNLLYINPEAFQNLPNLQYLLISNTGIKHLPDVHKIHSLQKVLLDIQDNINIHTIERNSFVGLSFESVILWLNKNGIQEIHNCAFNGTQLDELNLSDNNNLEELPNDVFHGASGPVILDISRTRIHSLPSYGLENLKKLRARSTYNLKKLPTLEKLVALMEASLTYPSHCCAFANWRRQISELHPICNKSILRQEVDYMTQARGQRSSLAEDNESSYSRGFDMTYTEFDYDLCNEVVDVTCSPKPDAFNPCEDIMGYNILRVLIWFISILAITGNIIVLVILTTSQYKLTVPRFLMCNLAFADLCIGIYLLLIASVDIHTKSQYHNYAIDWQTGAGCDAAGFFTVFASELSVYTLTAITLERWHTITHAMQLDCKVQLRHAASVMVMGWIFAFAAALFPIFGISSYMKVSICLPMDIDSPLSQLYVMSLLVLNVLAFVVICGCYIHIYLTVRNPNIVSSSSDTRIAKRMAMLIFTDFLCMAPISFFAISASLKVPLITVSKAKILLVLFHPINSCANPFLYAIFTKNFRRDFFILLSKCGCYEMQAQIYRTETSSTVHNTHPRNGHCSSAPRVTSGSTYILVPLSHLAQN

LHR = LHR (Homo sapiens, UniProt P22888); test: Selectivity test against LHR; format: cell-based
TSHR [1] = biological target: T2, TSHR (Homo sapiens, UniProt P16473); details: cited from earlier work
TSHR [2] = biological target: T2, TSHR; test: ELISA cAMP assay in HEK-EM293 cells expressing TSHR; format: cell-based; details: for fold more potent than the hit compound 1a: potency ratio versus 1a
[3] = degradation at pH = 2; cited from earlier work
TSHR [4] = details: mice; cited from earlier work

LHR, sequence (P22888 27-699): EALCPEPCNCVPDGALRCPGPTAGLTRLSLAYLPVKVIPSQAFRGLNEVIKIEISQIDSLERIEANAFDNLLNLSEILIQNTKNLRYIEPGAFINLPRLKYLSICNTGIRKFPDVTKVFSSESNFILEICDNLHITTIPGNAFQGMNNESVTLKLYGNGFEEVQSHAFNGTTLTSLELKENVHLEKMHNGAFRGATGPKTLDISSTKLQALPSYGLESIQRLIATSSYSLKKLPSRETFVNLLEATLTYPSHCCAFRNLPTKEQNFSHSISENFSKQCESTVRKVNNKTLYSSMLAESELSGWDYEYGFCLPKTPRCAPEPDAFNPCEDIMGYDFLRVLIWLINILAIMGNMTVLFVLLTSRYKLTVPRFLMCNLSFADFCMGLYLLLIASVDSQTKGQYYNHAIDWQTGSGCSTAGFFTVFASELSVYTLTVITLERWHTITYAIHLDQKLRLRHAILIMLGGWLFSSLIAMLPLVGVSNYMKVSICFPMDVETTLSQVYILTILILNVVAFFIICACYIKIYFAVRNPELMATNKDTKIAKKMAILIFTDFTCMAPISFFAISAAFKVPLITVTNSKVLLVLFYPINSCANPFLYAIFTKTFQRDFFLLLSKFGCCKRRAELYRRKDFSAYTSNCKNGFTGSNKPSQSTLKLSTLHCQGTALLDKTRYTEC
T2 sequence (P16473 21-764): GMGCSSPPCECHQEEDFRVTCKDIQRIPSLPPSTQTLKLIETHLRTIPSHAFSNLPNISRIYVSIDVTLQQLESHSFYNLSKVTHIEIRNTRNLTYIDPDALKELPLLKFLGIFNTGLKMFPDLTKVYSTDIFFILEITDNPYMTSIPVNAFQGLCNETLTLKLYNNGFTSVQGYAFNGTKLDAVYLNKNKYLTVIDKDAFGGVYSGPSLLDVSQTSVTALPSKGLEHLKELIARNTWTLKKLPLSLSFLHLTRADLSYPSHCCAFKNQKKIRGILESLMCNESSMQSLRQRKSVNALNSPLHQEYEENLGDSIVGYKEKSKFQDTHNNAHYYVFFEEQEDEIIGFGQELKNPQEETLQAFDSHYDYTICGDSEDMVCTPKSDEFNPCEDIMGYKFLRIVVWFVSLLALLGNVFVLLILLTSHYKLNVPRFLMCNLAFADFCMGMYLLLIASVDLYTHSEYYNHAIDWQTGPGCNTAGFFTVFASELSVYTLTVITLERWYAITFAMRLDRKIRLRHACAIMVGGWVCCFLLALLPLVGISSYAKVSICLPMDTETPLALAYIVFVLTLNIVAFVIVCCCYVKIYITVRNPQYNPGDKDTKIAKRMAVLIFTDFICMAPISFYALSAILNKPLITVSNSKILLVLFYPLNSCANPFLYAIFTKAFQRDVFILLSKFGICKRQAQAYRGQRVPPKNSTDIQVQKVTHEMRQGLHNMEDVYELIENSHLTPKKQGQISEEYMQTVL

With `COc1ccc(C2Nc3ccccc3C(=O)N2Cc2ccco2)cc1COc1ccc(NC(C)=O)cc1` (stereo not shown) [Compound 1a] the FSHR efficacy (FSHR) was “no detectable” and the LHR efficacy (LHR) was “no detectable”.
In the case of `COc1ccc(C2Nc3cccc(O)c3C(=O)N2Cc2ccccc2)cc1COc1ccc(NC(C)=O)cc1` (stereo not shown) [Compound 1b], the “TSHR agonism (type)” value (TSHR [1]) is listed as “full TSHR agonist”, the Emax (TSHR [2]; HEK-EM293) is listed as 100% and the “fold improvement in potency” value (TSHR [2]; R2 OH versus H (1g) or F (1e)) is listed as 3 fold. The “fold more potent than the hit compound 1a” value (TSHR [2]) was “at least 10 fold”, the half-life [3] was 3 h and the in vivo efficacy (TSHR [4]) was “in vivo efficacy in mice”.
For `COc1ccc(C2Nc3ccccc3C(=O)N2Cc2ccccc2)cc1COc1ccc(NC(C)=O)cc1` (stereo not shown) [Compound 1g], the “fold more potent than the hit compound 1a” value (TSHR [2]) was 4 fold.
In the case of `COc1ccc(C2Nc3ccccc3C(=O)N2CCc2ccccc2)cc1COc1ccc(NC(C)=O)cc1` (stereo not shown) [Compound 1m], the “fold reduction in potency” value (TSHR [2]; versus benzyl analogue 1g) is reported as 2 fold.
For `COc1ccc(C2Nc3ccccc3C(=O)N2Cc2ccccc2)cc1CSc1ccc(NC(C)=O)cc1` (stereo not shown) [Compound 8a], the “fold more potent than the hit compound 1a” value (TSHR [2]) was “at least 10 fold”.
With `COc1ccc(C2Nc3cccc(O)c3C(=O)N2Cc2ccccc2)cc1CSc1ccc(NC(C)=O)cc1` (stereo not shown) [Compound 8b] the “fold increase in potency” value (TSHR [2]; Y oxygen replaced with sulfur (8b vs 1b, 8a vs 1g)) was no more than 5 fold, the “selectivity for TSHR over FSHR” value (FSHR) was “maintain selectivity for TSHR over LHR and FSHR” and the “selectivity for TSHR over LHR” value (LHR) was “maintain selectivity for TSHR over LHR and FSHR”.
In the case of `COc1ccc(-c2nc3cccc(O)c3c(=O)n2Cc2ccccc2)cc1COc1ccc(NC(C)=O)cc1` [Compound 9c], the “selectivity for TSHR over FSHR” value (FSHR) is reported as “selective for TSHR over LHR and FSHR” and the “selectivity for TSHR over LHR” value (LHR) is reported as “selective for TSHR over LHR and FSHR”.
